The text below walks through data of PMC7716246 (ACS chemical neuroscience, 2020).

A short description of data set [1]: UV-vis Cu^2+ binding and Job's plot analysis of AMF:Cu^2+ stoichiometry. The format is physicochemical.
In another data set the target is Aβ fibrils (Aβ40) (Homo sapiens, UniProt P05067). Description: Thioflavin T. Format: binding.
The test system of a further data set is amyloid plaques. Format: binding, 5xFAD transgenic mice. The following applies: brain sections of 7 month old 5xFAD mice.
Data set [2] addresses T1, Aβ42 peptide (Homo sapiens, UniProt P05067). Put plainly: Inhibition of Aβ42 aggregation, ThT fluorescence. The format is biochemical. The note with it: in presence and absence of Cu^2+ or Zn^2+; [Aβ] = [M^2+] = [AMF] = 25 μM, 37 °C, 24 h.
Data set [3] addresses T1, Aβ42 peptide. Put plainly: Inhibition of Aβ42 aggregation, TEM and native gel electrophoresis/Western blot. The format is biochemical. The following applies: 37 °C, 24 h; for Aβ42 aggregates observed by TEM: [Aβ42] = [M^2+] = [AMF] = 25 μM; for Aβ42 aggregates by native gel/Western blot: 25 μM. For orientation: Immunoblotting shows a protein as a band on a membrane.
In data set [4] the target is T2, Aβ42 fibrils (Homo sapiens, UniProt P05067). Description: Disaggregation of preformed Aβ42 fibrils, ThT fluorescence. The format is biochemical. The following applies: in the absence and presence of Cu^2+; [Aβ] = [M^2+] = [AMF] = 25 μM, additional 24 h at 37 °C.
In data set [5] the target is T2, Aβ42 fibrils. The format is biochemical. The note with it: 25 μM, 37 °C; for Disaggregation of Aβ42 aggregates (TEM, native gel/Western blot): 24 h then 24 h with AMF.
The nature of data set [6]: Cu^2+-induced ascorbate consumption assay. The format is biochemical. The note with it: [Cu^2+] = 10 μM, [AMF] = 24 μM, [ascorbate] = 100 μM.
For data set [7] the following is noted: 2:1 Metal:AMF mixture, [M^2+]tot = 25 μM, [AMF]tot = 50 μM.
For data set [8] the following is noted: pH 7.4; 2:1 Metal:AMF mixture, [M^2+]tot = 25 μM, [AMF]tot = 50 μM.

Structures are written as SMILES. Like-named read-outs stand apart in the source and are kept apart here.

T2 sequence (P05067 672-713 limits assumed): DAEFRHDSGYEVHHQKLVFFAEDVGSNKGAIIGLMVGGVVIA
T1 sequence (P05067 672-713 limits assumed): as above
Sequence of Aβ fibrils (Aβ40) (P05067 672-711 limits assumed): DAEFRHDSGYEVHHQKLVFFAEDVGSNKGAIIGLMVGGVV

The term Ki denotes a dissociation constant, usually derived from enzyme kinetics or from competition with a known ligand. As for `O=c1cc(-c2ccc(O)c(-c3c(O)cc(O)c4c(=O)cc(-c5ccc(O)cc5)oc34)c2)oc2cc(O)cc(O)c12` [AMF, amentoflavone], in data set [1] (AMF and Cu^2+ in EtOH-PBS (1:10)), the “Break in Job's plot” value is reported as 0.7 mole fraction of Cu. Also, in data set [1] (from Job's plot), the “Cu bound per AMF (stoichiometry)” value is “at least 2 equiv”. This compound came in with a Ki on Aβ fibrils (Aβ40) of 287 ± 20 nM. Moreover, the “Fluorescence intensity of stained brain sections” value in the data set on amyloid plaques (25 μM) was “strong fluorescent intensity”. Besides, the “Pearson's correlation coefficient, colocalization with HJ3.4 immunofluorescence” value in the data set with amyloid plaques ([AMF] = [Cu^2+] = 25 μM, [HJ3.4] = 1 μg/mL) was found to be 0.65. Also, the “Effect on Aβ42 fibrillization (ThT fluorescence)” value at Aβ42 peptide [2] is “dramatically reduced the fibrillization of Aβ42”. The “Aβ42 aggregates observed by TEM” value on Aβ42 peptide [3] (in the absence and presence of Cu^2+) is “only small amorphous aggregates were observed”; at Aβ42 peptide [3] (in the presence of Zn^2+), “a range of amorphous and fibrillar aggregates is formed”. Also, the “Aβ42 aggregates by native gel/Western blot” value at Aβ42 peptide [3] (in the presence of Cu^2+) is “the amount of soluble Aβ42 oligomers is also reduced”; on Aβ42 peptide [3] (in the presence of Zn^2+), “a wide range of various-size aggregates is formed”; on Aβ42 peptide [3] (no metal ions), “dramatically reduces the amount of large Aβ42 aggregates”. Moreover, at Aβ42 fibrils [4], the “Disaggregation of preformed Aβ42 fibrils (ThT fluorescence)” value is “efficient at reducing the amount of Aβ42 fibrils”. Further, the “Disaggregation of Aβ42 aggregates (TEM, native gel/Western blot)” value at Aβ42 fibrils [5] (Cu^2+-incubated Aβ42 aggregates) was “reduction in the amount of both large aggregates and smaller Aβ42 oligomers”; on Aβ42 fibrils [5] (Zn^2+-incubated Aβ42 amorphous aggregates), “decreases to some extent”. Also, the “Disaggregation of Aβ42 fibrils (TEM, native gel/Western blot)” value on Aβ42 fibrils [5] (no metal ions, 24 h fibrilization then 24 h with AMF) is recorded as “disaggregates the Aβ42 fibrils efficiently”. The “Effect on ascorbate consumption” value in data set [6] (AMF added to the Cu^2+-Aβ42-ascorbate solution, [Aβ42] = 12 μM) is reported as “efficiently reduce the consumption of ascorbate”; in data set [6] (premixed AMF-Cu^2+ complex, with monomeric Aβ42 12 μM), “significant inhibition of the ascorbate consumption”. Also, the entries for the “pCu (pM = −log[M]free)” value in data set [7] (pH 6.6) and in data set [7] (pH 7.4) were 9.62 and 10.44, respectively. The “pZn (pM = −log[M]free)” value in data set [8] worked out at 8.15.
